Measured values: ChEMBL document CHEMBL4340512, “Discovery of novel triazolo[4,3-b]pyridazin-3-yl-quinoline derivatives as PIM inhibitors” (Eur J Med Chem, 2019)

Columns and labels:
DU-145 = test: Antiproliferative activity against human DU145 cells incubated for 72 hrs by CellTiter-Glo luminescence assay; format: functional; conditions: DU-145, 72 h
SK-MEL19 = test: Antiproliferative activity against human SK-MEL-19 cells incubated for 72 hrs by CellTiter-Glo luminescence assay; format: functional; conditions: SK-MEL19, 72 h
U-87 MG = test: Antiproliferative activity against human U87MG cells incubated for 72 hrs by CellTiter-Glo luminescence assay; format: functional, U-87MG ATCC
MIA PaCa-2 = test: Antiproliferative activity against human MIAPaCa2 cells incubated for 72 hrs by CellTiter-Glo luminescence assay; format: functional; conditions: MIA PaCa-2, 72 h
MDA-MB-231 = test: Antiproliferative activity against human MDA-MB-231 cells incubated for 72 hrs by CellTiter-Glo luminescence assay; format: functional; conditions: MDA-MB-231, 72 h
JeKo-1 = test: Antiproliferative activity against human JeKo1 cells incubated for 72 hrs by CellTiter-Glo luminescence assay; format: functional; conditions: JeKo-1, 72 h
MV4-11 = test: Antiproliferative activity against human MV4-11 cells incubated for 72 hrs by CellTiter-Glo luminescence assay; format: functional; conditions: MV4-11, 72 h
T47D = test: Antiproliferative activity against human T47D cells incubated for 72 hrs by CellTiter-Glo luminescence assay; format: functional
HCT-116 = test: Antiproliferative activity against human HCT116 cells incubated for 72 hrs by CellTiter-Glo luminescence assay; format: functional; conditions: HCT-116, 72 h
Raji = test: Antiproliferative activity against human Raji cells incubated for 72 hrs by CellTiter-Glo luminescence assay; format: functional
PC-3 = test: Antiproliferative activity against human PC3 cells incubated for 72 hrs by CellTiter-Glo luminescence assay; format: functional; conditions: PC-3, 72 h

Row | Compound | GI50 (DU-145) | GI50 (SK-MEL19) | GI50 (U-87 MG) | GI50 (MIA PaCa-2) | GI50 (MDA-MB-231) | GI50 (JeKo-1) | GI50 (MV4-11) | GI50 (T47D) | GI50 (HCT-116) | GI50 (Raji) | GI50 (PC-3)
1 | CS(=O)(=O)CCNCc1ccc(-c2ccc3ncnc(Nc4ccc(OCc5cccc(F)c5)c(Cl)c4)c3c2)o1 [LAPATINIB] | 20 µM | 5 µM | 10 µM | 10 µM | 20 µM | 5 µM | 10 µM | 40 µM | 20 µM | – | –
2 | CC(=O)c1c(C)c2cnc(Nc3ccc(N4CCNCC4)cn3)nc2n(C2CCCC2)c1=O [PALBOCICLIB] | – | 30 µM | – | – | 30 µM | 30 µM | – | – | – | 30 µM | –
3 | CS(=O)(=O)N1CCN(Cc2cc3nc(-c4cccc5[nH]ncc45)nc(N4CCOCC4)c3s2)CC1 [PICTILISIB] | – | 6 µM | 6 µM | 12 µM | 12 µM | 5 µM | 3 µM | 3 µM | – | – | 3 µM
